Series [1] deals with IMS-M2. The experiment in a line: Cell growth, viable cell count by trypan blue exclusion. The format is cell-based, human. As to conditions: IMS-M2, 5 µM, at 48 and 72 h.
Series [2] can be described thus: Intrinsic fluorescence assay. Format: physicochemical. As to conditions: excitation/emission 485–535 nm, AKT1 assay buffer, 2 h 37 °C. As to the method: Compound T126 was serially diluted in 384-well black plates with Hepes 100 mM, DMSO 4%, Brij 0.003%, Tween 20 0.004%, MgCl2 10 mM, at a pH = 7.5 and incubated for 2 h at 37 °C. After the incubation time the intensity of fluorescence (λexc: 485 nm; λemm: 535 nm) was detected in a Tecan M1000 Pro.

For series [3], the system named is OCI-AML3. The experiment in a line: Cell growth, viable cell count by trypan blue exclusion. As to conditions: OCI-AML3, 5 µM, at 48 and 72 h. The format is cell-based, human.
Series [4] concerns cleaved-PARP. The series is described as follows: Western blot of apoptosis marker in AML cell lines. The following applies: 5 µM, 48 h. Format: cell-based, human. The protocol: Immunoblotting was conducted as described previously. Briefly, fresh cell pellets (0.2–0.5 × 10^6/test for AML cell lines) were dissolved directly in 30–60 μL of Laemmli sample buffer 1× (1.5 M Tris-HCl pH 6.8, glycerol, β-mercaptoethanol, SDS, bromophenol blue) and boiled at 95 °C for 5 min. The proteins were separated by SDS-polyacrylamide gel electrophoresis (SDS-PAGE) on Precast 4–15% gradient gels (Biorad, Hercules, CA, USA) transferred onto nitrocellulose membranes (GE Healthcare, Piscataway, NJ, USA) and probed with specific primary antibodies followed by horseradish peroxidase-conjugated secondary antibodies (GE Healthcare Lifesciences). The polypeptides were visualized using enhanced chemiluminescence (Luminata Crescendo, Merck Millipore, Burlington, MA, USA) according to the manufacturer’s instructions. The bands were visualized using the Biorad Chemidoc and the images were processed using the image lab software (Biorad) and Adobe Photoshop (Ps CC 2019). β-actin expression levels were used as a control for protein loading, as indicated. […]
On the technique in general: Immunoblotting shows a protein as a band on a membrane.

The nature of series [5]: Solubility screen assay to determine chemical aggregation (nephelometry). Format: physicochemical. The following applies: AKT1 assay buffer pH 7.5, 37 °C, 2 h, NEPHELOstar Plus. The protocol: The stock solutions (10–2 M) of the compound T126 were diluted to a decreased molarity, from 100 µM to 0.0001 µM, in 384-well transparent plates (Greiner 781801) with 1% DMSO: 99% buffer Hepes 100 mM, DMSO 4%, Brij 0.003%, Tween 20 0.004%, MgCl2 10 mM, at a pH = 7.5. Incubation occurred at 37 °C and the results were read after 2 h in a NEPHELOstar Plus (BMG LABTECH, Ortenberg, Germany). The results were adjusted to a segmented regression to obtain the maximum concentration in which the compounds were soluble.

Turning to `O=c1[nH]c(-c2ccc(O)c(O)c2)nc2sc3c(c12)CCCC3` [T126], the cell growth inhibition entry in series [1] and in series [3] was “significant cell growth inhibition” throughout. Moreover, the intrinsic fluorescence result in series [2] is “not fluorescent”. For the same compound, the “cleaved-PARP (marker of apoptosis)” value in series [4] is “detected”. In addition, in series [5], the “concentration up to which no aggregation occurs” value is at least 100 µM.

For the origin of these results see article PMC9698716, “From Serendipity to Rational Identification of the 5,6,7,8-Tetrahydrobenzo[4,5]thieno[2,3-d]pyrimidin-4(3H)-one Core as a New Chemotype of AKT1 Inhibitors for Acute Myeloid Leukemia” (Pharmaceutics, 2022).
